Source: patent publication US20230257480A1, “ENHANCING BLOOD-BRAIN BARRIER DRUG TRANSPORT BY TARGETING ENDOGENOUS REGULATORS” (THE BOARD OF TRUSTEES OF THE LELAND STANFORD JUNIOR …, priority 2019, published 2023)

System: aged brain endothelial cells
Experiment: scRNA-seq of aged brain endothelial cells after pharmacologic ALPL inhibition
Assay type: in vivo, mice
Description: FIG. 21A includes an image and histogram showing holo-transferrin uptake in ALPL+/− cortical vasculature (n=6, paired two-sided t-test). FIG. 21B is an MA plot of differentially expressed genes (FDR<0.05) from aged mice after administration of ALPL inhibitor and vehicle (7,036 capillary cells, n=4 mice pooled per group, MAST with Bonferroni correction). FIG. 21C includes violin plots showing transferrin receptor (Tfrc) expression across vessel segments, following the paradigm in FIG. 21B (1,171 arterial, 7,036 capillary, and 430 venous cells, MAST with Bonferroni correction).
Cell lysis, first-strand synthesis and cDNA synthesis was performed using the Smart-seq-2 protocol as described previouslyl39-141 in 384-well format, with some modifications. Briefly, brain endothelial cells (CD31+/CD45−) were sorted using SH800S (Sony) sorters on the highest purity setting (‘Single cell’). Plasma-647 fluorescence was recorded for each cell and corresponding sorted well. cDNA synthesis was performed using the Smart-seq2 protocol140-142. After cDNA amplification (23 cycles), concentrations were determined via the PicoGreen quantitation assay. Cells passing quality control were selected through custom scripts and cDNA concentrations normalized to ˜0.2 ng/μL using the TPPLabtech Mosquito HTS and Mantis (Formulatrix) robotic platforms. Libraries were prepared and pooled using the Nextera XT kits (Illumina), following the manufacturer's instructions. Libraries were then sequenced on the Nextseq or Novaseq (Illumina) using 2×75 bp paired-end reads and 2×8 bp index reads with a 200-cycle kit (Illumina, 20012861). Samples were sequenced at an average of 1.5M reads per cell. Raw sequencing files were demultiplexed with bcl2fastq, reads were aligned using STAR, and gene counts made using HTSEQ version 0.6.1p1. Downstream analysis was performed as previously described58, and plasma fluorescence of each cell correlated (Spearman) with gene expression and zonation59.
Mice were treated with six doses of ALPL inhibitor (613810, Millipore Sigma; 2,5-Dimethoxy-N-(quinolin-3-yl)benzenesulfonamide, Tissue-Nonspecific Alkaline Phosphatase Inhibitor, MLS-0038949; C17H16N2O4S; CAS #496014-13-2) or ‘Vehicle’ control over three days, injected intraperitoneally twice per day (8.75 mg/kg). ‘Vehicle’ treatments consisted of phosphate-buffered saline (PBS) with a matching concentration of DMSO (less than 4% v/v). After the sixth treatment, mice were injected intravenously with 150 μL of Atto 647N-labeled plasma (as above), human holo-transferrin (T4132, Millipore Sigma, 40 mg/kg), transferrin receptor antibody (BE0175, BioXcell, 20 mg/kg), or 3-kDa dextran-FITC (10 mg/kg, Thermo Fisher). Plasma, human holo-transferrin, and transferrin receptor antibody were infused 20 h before sacrifice, while 3-kDa dextran-FITC was given 2 h before sacrifice, as previously described143. After extensive perfusion, CNS cells were isolated as described above. Cell pellets were additionally incubated in Red Blood Cell Lysis Buffer (Millipore Sigma, R7757) for 2 minutes to ensure high CNS cell purity. Brain endothelial cells were distinguished by CD3 I+/CD45− staining and parenchymal cells by CD31−/CD45− staining. […]

## COc1ccc(OC)c(S(=O)(=O)Nc2cnc3ccccc3c2)c1 [ALPL inhibitor, 2,5-Dimethoxy-N-(quinolin-3-yl)benzenesulfonamide]
Aged BBB, upon ALPL inhibition
  TFRC expression on the aged BBB: strongly upregulated
  ferroportin expression on the aged BBB: strongly upregulated
Aged mice, capillary cells, after ALPL inhibition
  transferrin receptor expression increase in capillaries: ~70%
Aged mice, venous cells, after ALPL inhibition
  transferrin receptor expression increase in venous cells: ~89%
Receptor gene Fcgrt, ALPL inhibitor-treated group
  pct, ALPL inh., Fcgrt: 0.849
Receptor gene Fcgrt, aged BBB, ALPL inhibition vs control
  % increase, Fcgrt: 24.2%
Receptor gene Lpar6, ALPL inhibitor-treated group
  pct, ALPL inh., Lpar6: 0.446
Receptor gene Lpar6, aged BBB, ALPL inhibition vs control
  % increase, Lpar6: 37.0%
Receptor gene Scarb1, ALPL inhibitor-treated group
  pct, ALPL inh., Scarb1: 0.45
Receptor gene Scarb1, aged BBB, ALPL inhibition vs control
  % increase, Scarb1: 11.1%
Receptor gene Tfrc, ALPL inhibitor-treated group
  pct, ALPL inh., Tfrc: 0.723
Receptor gene Tfrc, aged BBB, ALPL inhibition vs control
  % increase, Tfrc: 70.1%
Transporter gene Slc6a6, ALPL inhibitor-treated group
  pct, ALPL inh., Slc6a6: 0.99
Transporter gene Slc6a6, aged BBB, ALPL inhibition vs control
  % increase, Slc6a6: 24.9%
Transporter gene Slc7a1, ALPL inhibitor-treated group
  pct, ALPL inh., Slc7a1: 0.72
Transporter gene Slc7a1, aged BBB, ALPL inhibition vs control
  % increase, Slc7a1: 12.2%
Transporter gene Slc16a2, ALPL inhibitor-treated group
  pct, ALPL inh., Slc16a2: 0.66
Transporter gene Slc16a2, aged BBB, ALPL inhibition vs control
  % increase, Slc16a2: 16.5%
Transporter gene Slc16a4, ALPL inhibitor-treated group
  pct, ALPL inh., Slc16a4: 0.42
Transporter gene Slc16a4, aged BBB, ALPL inhibition vs control
  % increase, Slc16a4: 18.8%
Transporter gene Slc22a8, ALPL inhibitor-treated group
  pct, ALPL inh., Slc22a8: 0.71
Transporter gene Slc22a8, aged BBB, ALPL inhibition vs control
  % increase, Slc22a8: 11.0%
Transporter gene Slc25a1, ALPL inhibitor-treated group
  pct, ALPL inh., Slc25a1: 0.24
Transporter gene Slc25a1, aged BBB, ALPL inhibition vs control
  % increase, Slc25a1: 10.7%
Transporter gene Slc26a10, ALPL inhibitor-treated group
  pct, ALPL inh., Slc26a10: 0.19
Transporter gene Slc26a10, aged BBB, ALPL inhibition vs control
  % increase, Slc26a10: 17.8%
Transporter gene Slc39a8, ALPL inhibitor-treated group
  pct, ALPL inh., Slc39a8: 0.34
Transporter gene Slc39a8, aged BBB, ALPL inhibition vs control
  % increase, Slc39a8: 10.9%
Transporter gene Slc39a10, ALPL inhibitor-treated group
  pct, ALPL inh., Slc39a10: 0.89
Transporter gene Slc39a10, aged BBB, ALPL inhibition vs control
  % increase, Slc39a10: 12.1%
Transporter gene Slc40a1 (ferroportin), aged BBB, ALPL inhibition vs control
  % increase, Slc40a1: 35.0%
Transporter gene Slc40a1, ALPL inhibitor-treated group
  pct, ALPL inh., Slc40a1: 0.62
Transporter gene Slco1c1, ALPL inhibitor-treated group
  pct, ALPL inh., Slco1c1: 0.97
Transporter gene Slco1c1, aged BBB, ALPL inhibition vs control
  % increase, Slco1c1: 15.7%
